# Laboratory results: US8846912B2, “Tartrate salts of quinazoline based EGFR inhibitors containing a zinc binding moiety” (Curis, Inc., priority 2007, dated 2014)
# Structures can show the parent of a compound that is named as a salt. Where two headings read alike, the source gives them in different places.
# Columns and labels:
# [1] = pH of salt solution in 30% CAPTISOL; type: physicochemical; conditions: salt in 30% CAPTISOL
# Experimental: Sodium, hydrochloride, citrate and tartrate salts of a test compound of Formula I were prepared in 30% CAPTISOL® solutions and were studied for the following:
# [2] = Dilution study with D5W (precipitation, chemical stability); type: physicochemical; conditions: for Dilution with D5W: salt in 30% CAPTISOL; for Chemical stability in diluted solution: salt in 30% CAPTISOL diluted with D5W
# [3] = both, Sprague Dawley, rat, in vivo, iv, 7 days
# Experimental: 4. 7-day multiple dosing MTD in rats • a. Sprague Dawley, male and female, 220-250 gram • b. Dose, 25, 50, 100, 200 mg/kg/d) iv infusion 5 min • c. 6 per group (3 male and 3 female) • d. Blood and organs will be collected 2 hr after last dosing on Day 7 for hematology Compound Preparation.
# (§7) Stock solution is diluted with 30% CAPTISOL® before use.
# [4] = male, CD-1, mouse, in vivo, iv, 9 days
# Experimental: Single dosing MTD in mice • a. CD-1 mice, male, 24-26 gram • b. Dosing at 0, 50, 100, 200, 400 mg/kg, iv infusion 2 min • c. 8 mice per group
# as §7
# A549 NSCLC Xenograft = experiment: A549 NSCLC xenograft model; type: in vivo; conditions: FIG. 11A, 11B
# [5] = Pharmacokinetic study of compound 12 in dogs; type: in vivo; conditions: 25 mg/kg tartrate salt in 30% CAPTISOL, FIG. 19
# Experimental: (§1) Compound was administered via an intravenous (iv) infusion.
# Beagle: 25 mg/kg for 30 min i.v. infusion
# (§2) Plasma samples were prepared by protein precipitation. An internal standard was added into plasma samples. […] The supernatant was then injected onto LC/MS/MS.
# (§3) Samples were compared to standards made in plasma. These standards were prepared by serial dilution.
# [6] = both, Sprague Dawley, rat, in vivo, iv, 8 days
# Experimental: Single dosing MTD in rats • a. Sprague Dawley, male and female, 240-260 gram • b. Dosing at 0, 25, 50, 100, 200 mg/kg, iv infusion 5 min • c. 6 rats per group (3 male and 3 female)
# as §7
# [7] = Pharmacokinetic study of compound 12 formulation in rats; type: in vivo; conditions: hydrochloride salt in 30% CAPTISOL, 20 and 60 mg/kg iv, FIG. 14
# Experimental: as §1
# Rat: 20 mg/kg for 5 min i.v. infusion
# as §2, §3
# [8] = male, CD-1, mouse, in vivo, ip, 7 days
# Experimental: 7-day-multiple dosing MTD in mice • a. CD-1 mice, male, 24-26 gram • b. Dosing at 0, 50, 100, 200 mg/kg/d ip • c. 6 mice per group • d. Blood and organs will be collected 2 hr after last dosing on Day 7 for hematology
# as §7
# [9] = molecular target: T1, human EGFR(His672-Ala1210) (Homo sapiens, UniProt P00533); experiment: EGFR kinase assay (HTScan EGF Receptor Kinase Assay Kit); type: biochemical; conditions: FIG. 1
# T1 construct: a construct expressing human EGFR(His672-Ala1210); GST (N); purchased Cell Signaling Technologies; host or cells: baculovirus expression system
# Experimental: The ability of compounds to inhibit receptor kinase (EGFR) activity was assayed using HTScan™ EGF Receptor Kinase Assay Kits (Cell Signaling Technologies, Danvers, Mass.). […] The protein was purified by one-step affinity chromatography using glutathione-agarose.
# Immediately transfer enzyme from −80° C. to ice. Allowed enzyme to thaw on ice. […] Returned immediately to ice. […] Incubated reaction plate at room temperature for 30 minutes. […] Added 100 μl/well primary antibody. Incubated at room temperature for 60 minutes. […] Added 100 μl/well diluted antibody. Incubated at room temperature for 30 minutes. […] Incubated at room temperature for 5 minutes.
# Caki-1 Renal carcinoma = experiment: Cell proliferation assay (ATPlite); type: cell-based; conditions: Homo sapiens; Caki-1, Renal carcinoma (Table D); read-out: IC50 in cancer cell line
# Experimental: (§4) Cell Proliferation Assay:
# (§5) Cancer cell lines were plated at 5,000 to 10,000 per well in 96-well flatted bottomed plates with various concentration of compounds. […] Growth inhibition was accessed by adenosine triphosphate (ATP) content assay using Perkin Elmer ATPlite kit. ATPlite is an ATP monitoring system based on firefly luciferase. Briefly, 25 μl of mammalian cell lysis solution was added to 50 μl of phenol red-free culture medium per well to lyse the cells and stabilize the ATP. 25 μl of substrate solution was then added to the well and subsequently the luminescence was measured.
# [10] = tested on: HDAC in MDA-MB-468 breast cancer cell line; experiment: Histone acetylation (Ac-H4, Ac-H3 accumulation) in cells; type: cell-based; conditions: FIG. 2
# Source text: (§6) FIG. 2 illustrates inhibition of HDAC and EGFR in MDA-MB-468 breast cancer cell line: (a) Ac-H4 Accumulation, (b) Ac-H3 Accumulation, (c) EGFR inhibition.
# [11] = tested on: HPAC pancreatic cancer cells; experiment: HPAC pancreatic cancer tumor model; type: in vivo; conditions: 120 mg/kg in 30% CAPTISOL (iv/ip) daily; FIG. 12A
# [12] = tested on: EGFR in MDA-MB-468 breast cancer cell line; experiment: EGFR phosphorylation in cells; type: cell-based; conditions: FIG. 2
# Source text: as §6
# [13] = tested on: various cancer cell lines; experiment: Cell proliferation assay, various cancer cell lines; type: cell-based; conditions: Table D, FIG. 3
# Experimental: as §4
# Cancer cell lines were plated at 5,000 to 10,000 per well in 96-well flatted bottomed plates with various concentration of compounds. The cells were incubated with compounds for 72 hours in the presence of 0.5% of fetal bovine serum. Growth inhibition was accessed by adenosine triphosphate (ATP) content assay using Perkin Elmer ATPlite kit. ATPlite is an ATP monitoring system based on firefly luciferase. Briefly, 25 μl of mammalian cell lysis solution was added to 50 μl of phenol red-free culture medium per well to lyse the cells and stabilize the ATP. 25 μl of substrate solution was then added to the well and subsequently the luminescence was measured.
# [14] = Pharmacokinetic study of compound 12 formulation in mice (iv, ip); type: in vivo; conditions: hydrochloride salt
# [15] = tested on: colon and breast cancer cells (HCT-116, SKBr3); experiment: Induction of apoptosis (Caspase 3&7 activity); type: cell-based; conditions: HCT-116 and SKBr3, 24 hours; FIG. 4
# [16] = Stability of CAPTISOL solution at room temperature; type: physicochemical; conditions: 25 mg/ml compound 12 with 8.6 mg tartaric acid in 30% CAPTISOL
# Breast_MCF7 = experiment: Cell proliferation assay (ATPlite); type: cell-based; conditions: Homo sapiens, MCF7; MCF-7, Breast adenocarcinoma (Table D); read-out: IC50 in cancer cell line
# Experimental: as §4, §5
# [17] = tested on: MDA-MB-231 Breast adenocarcinoma; experiment: Cell proliferation assay (ATPlite); type: cell-based; conditions: Homo sapiens; MDA-MB-231, Breast adenocarcinoma (Table D); read-out: IC50 in cancer cell line
# Experimental: as §4, §5
# Prostate_PC3 = experiment: Cell proliferation assay (ATPlite); type: cell-based; conditions: PC-3, Prostate adenocarcinoma (Table D); read-out: IC50 in cancer cell line
# Experimental: as §4, §5
# Colon_HCT116 = experiment: Cell proliferation assay (ATPlite); type: cell-based; conditions: Homo sapiens, HCT-116; HCT116, Colon cancer (Table D); read-out: IC50 in cancer cell line
# Experimental: as §4, §5
# Breast_SkBr3 = experiment: Cell proliferation assay (ATPlite); type: cell-based; conditions: Homo sapiens, SK-BR-3; SKBr3, Breast carcinoma (Table D); read-out: IC50 in cancer cell line
# Experimental: as §4, §5
# HDAC = HDAC fluorimetric enzyme assay (HeLa nuclear extract); type: biochemical
# Experimental: HDAC inhibitors were screened using an HDAC fluorimetric assay kit (AK-500, Biomol, Plymouth Meeting, Pa.).
# Each assay was setup as follows: Defrosted all kit components and kept on ice until use. […] Prepared dilutions of Trichostatin A (TSA, positive control) and tested compounds in assay buffer (5× of final concentration). Diluted Fluor de Lys™ Substrate in assay buffer to 100 uM (50 fold=2× final). Diluted Fluor de Lys™ developer concentrate 20-fold (e.g. 50 μl plus 950 μl Assay Buffer) in cold assay buffer. Second, diluted the 0.2 mM Trichostatin A 100-fold in the 1× Developer (e.g. 10 μl in 1 ml; final Trichostatin A concentration in the 1× Developer=2 μM; final concentration after addition to HDAC/Substrate reaction=1 μM). Added Assay buffer, diluted trichostatin A or test inhibitor to appropriate wells of the microtiter plate. Added diluted HeLa extract or other HDAC sample to all wells except for negative controls.
# T1 sequence (P00533 672-1210): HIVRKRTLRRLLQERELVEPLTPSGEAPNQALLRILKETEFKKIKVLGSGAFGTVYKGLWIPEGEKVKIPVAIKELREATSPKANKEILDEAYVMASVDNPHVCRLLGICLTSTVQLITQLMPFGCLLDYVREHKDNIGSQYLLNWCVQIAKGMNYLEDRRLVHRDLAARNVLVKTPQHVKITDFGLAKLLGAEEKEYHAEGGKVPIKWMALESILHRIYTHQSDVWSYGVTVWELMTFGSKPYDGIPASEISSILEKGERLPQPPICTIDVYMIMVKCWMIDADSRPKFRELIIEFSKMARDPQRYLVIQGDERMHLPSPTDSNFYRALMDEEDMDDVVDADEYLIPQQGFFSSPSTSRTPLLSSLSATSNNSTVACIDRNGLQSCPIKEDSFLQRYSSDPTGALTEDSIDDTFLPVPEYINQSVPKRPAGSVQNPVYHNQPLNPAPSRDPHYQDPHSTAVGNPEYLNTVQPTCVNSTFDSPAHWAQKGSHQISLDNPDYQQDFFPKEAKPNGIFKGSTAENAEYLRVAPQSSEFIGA
compound,measurement,setting,value
C#Cc1cccc(Nc2ncnc3cc(OC)c(OCCCCCCC(=O)NO)cc23)c1 [Sodium],pH,[1],10-11
same,Dilution with D5W,[2],>10x
same,Chemical stability in diluted solution,[2],>12 h
"C#Cc1cccc(Nc2ncnc3cc(OC)c(OCCCCCCC(=O)NO)cc23)c1 [Compound 12, 7-(4-(3-ethynylphenylamino)-7-methoxyquinazolin-6-yloxy)-N-hydroxyheptanamide]",dose without significant change in body weight or food consumption,[3],up to 100 mg/kg
same,dose without significant change in body weight,[4],up to 200 mg/kg
same,effect on tumor growth / tumor size,A549 NSCLC Xenograft,attenuated tumor growth
same,concentration in plasma in 4 hours,[5],less than 10 mg/ml
same,dose without significant change in body weight,[6],up to 200 mg/kg
same,dose proportionality of plasma concentration,[7],proportional to the dose
same,dose without significant change in body weight,[8],up to 100 mg/kg
same,activity in EGFR enzyme assay compared with erlotinib,[9],more active than erlotinib and SAHA
same,IC50,Caki-1 Renal carcinoma,≤ 0.05 µM
same,inhibition of histone acetylation compared with SAHA,[10],improvement in inhibition of histone acetylation
same,attenuation of tumor growth,[11],greater attenuation of tumor growth than either erlotinib (po) or vehicle
same,stability of diluted solution at room temperature,"[2]; 60 mg/ml compound 12 with tartaric acid (1.3 eq) in 30% CAPTISOL, diluted in 1x water and 2x D5W",> 12 h
same,inhibition of EGFR phosphorylation compared with Erlotinib,[12],improvement in inhibition of histone acetylation and EGFR phosphorylation
same,"anti-proliferative activity compared with Erlotinib, SAHA and their combination",[13],more active than Erlotinib and SAHA
same,dose proportionality of concentration,"[14]; 20 and 60 mg/kg, iv and ip",dose proportional when administered intravenously but not intraperitoneally
same,half-life in tissue versus plasma,"[14]; lung, colon, plasma",greater than that in plasma
same,cell apoptosis measured by increased Caspase 3&7 activity,[15],4-11 times
same,stability of solution,[16],stable at room temperature
C#Cc1cccc(Nc2ncnc3cc(OCCOC)c(OCCOC)cc23)c1 [Erlotinib],effect on tumor growth / tumor size,A549 NSCLC Xenograft,did not significantly affect tumor size as compared to control
same,IC50,Breast_MCF7,≤ 5 µM
same,IC50,[17],≤ 5 µM
same,IC50,Prostate_PC3,≤ 5 µM
same,IC50,Colon_HCT116,≤ 5 µM
same,IC50,Breast_SkBr3,≤ 5 µM
Citric Acid,Dilution with D5W,[2],>10x
same,Chemical stability in diluted solution,[2],>12 h
COc1cc2ncnc(NCCc3ccccc3)c2cc1OCCCCCCC(=O)NO [Compound 84],IC50,HDAC,< 0.1 µM
O=C(CCOc1ccc2ncnc(Nc3ccc(F)c(Cl)c3)c2c1)NO [Compound 14],IC50,HDAC,1 to 10 µM
"C#Cc1cccc(Nc2ncnc3cc(OC)c(NC(=O)CCCCCCC(=O)NO)cc23)c1 [Compound 44, N^1-(4-(3-ethynylphenylamino)-7-methoxyquinazolin-6-yl)-N^8-hydroxyoctanediamide]",IC50,HDAC,< 0.1 µM
"O=C(CCCOc1ccc2ncnc(Nc3ccc(F)c(Cl)c3)c2c1)NO [Compound 15, 4-(4-(3-chloro-4-fluorophenylamino)quinazolin-6-yloxy)-N-Hydroxybutanamide]",IC50,HDAC,< 0.1 µM
"COc1cc2ncnc(N[C@H](C)c3ccc(Cl)cc3)c2cc1OCCCCCCC(=O)NO [Compound 82, (R)-7-(4-(1-(4-Chlorophenyl)ethylamino)-7-methoxyquinazolin-6-yloxy)-N-hydroxyheptanamide]",IC50,HDAC,0.1 to 1 µM
"COCCOc1cc2ncnc(Nc3ccc(F)c(Cl)c3)c2cc1OCCCCCCC(=O)NO [Compound 30, 7-(4-(3-Chloro-4-fluorophenylamino)-7-(2-methoxyethoxy)quinazolin-6-yloxy)-N-hydroxyheptanamide]",IC50,HDAC,< 0.1 µM
"COc1cc2ncnc(N[C@H](C)c3ccccc3)c2cc1OCCCCCCC(=O)NO [Compound 79, (R)—N-hydroxy-7-(7-methoxy-4-(1-phenylethylamino)quinazolin-6-yloxy)heptanamide]",IC50,HDAC,< 0.1 µM
"COc1cc2ncnc(Nc3ccc(F)c(Cl)c3)c2cc1OCCCCCCC(=O)NO [Compound 6, 7-(4-(3-Chloro-4-fluorophenylamino)-7-methoxyquinazolin-6-yloxy)-N-hydroxyheptanamide]",activity in EGFR enzyme assay compared with erlotinib,[9],more active than erlotinib and SAHA
same,IC50,HDAC,< 0.1 µM
same,activity in HDAC enzyme assay compared with SAHA,HDAC; FIG. 1,more active than erlotinib and SAHA
C#Cc1cccc(Nc2ncnc3cc(OC)c(OCCCCCCC(=O)NO)cc23)c1 [HCl],pH,[1],2-3
same,Dilution with D5W,[2],>10x
same,Chemical stability in diluted solution,[2],>12 h
"O=C(CCCCOc1ccc2ncnc(Nc3ccc(F)c(Cl)c3)c2c1)NO [Compound 16, 5-(4-(3-chloro-4-fluorophenylamino)quinazolin-6-yloxy)-N-hydroxypentanamide]",IC50,HDAC,0.1 to 1 µM
C#Cc1cc(Nc2ncnc3cc(OCCOC)c(OCCCCCCC(=O)NO)cc23)ccc1F [Compound 76],IC50,HDAC,< 0.1 µM
